Experimental data: patent US20050124497A1, “Delta1-pyrrolines and their use as pest control agents” (priority 2002, published 2005)

Test system: caterpillars of the diamondback moth (Plutella xylostella)
Assay: Plutella test
Format: in vivo
Settings: 100 ppm active compound, cabbage leaves dipped, kill after 7 d
Experimental: To produce a suitable preparation of active compound, 1 part by weight of active compound is mixed with the stated amounts of solvent and emulsifier, and the concentrate is diluted with emulsifier-containing water to the desired concentration.
Cabbage leaves (Brassica oleracea) are treated by being dipped into the preparation of active compound of the desired concentration and are populated with caterpillars of the diamondback moth (Plutella xylostella) while the leaves are still moist.
After the desired period of time, the kill in % is determined. 100% means that all caterpillars have been killed; 0% means that none of the caterpillars have been killed.

Fc1cc(-c2nc3cc(-c4ccccc4)ccc3o2)ccc1C1CCC(c2c(F)cccc2F)=N1 (stereo not shown) [drawing 46]
Efficacy in % after 7 d: 100%
